The test system of the assay is IL-1β production in PMA-differentiated THP-1 cells. The assay is described as follows: IL-1β production in PMA-differentiated THP-1 cells stimulated with gramicidin (hTHP-1 assay, 2% bovine serum; Bioassays 1 and 2). It counts as cell-based, human. To be noted: Homo sapiens, THP-1, hTHP-1 assay containing 2% bovine serum, read-out: Average IC50 of compounds in hTHP-1 assay. In outline:
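PMA-differentiated THP-1 cells in 2% FBS RPMI were pre-treated with compound for 1 h, then given gramicidin 5 μM for 2 h, and supernatants were assayed to give IC50. Protocol 1: PMA 10 μg/ml 24 h, 1×10^6 cells/ml, ELISA, 1% DMSO. Protocol 2: PMA 20 ng/ml 16-18 h, 50,000 cells/well, HTRF, 0.38% DMSO.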

Where two headings read alike, the source gives them in different places. A value given as a limit tells only on which side of the number the result lay.

Broadly, the IC50 is the point on the concentration scale where inhibition reaches its midpoint.

As for `CC(C)c1cccc(C(C)C)c1CC(=O)NS(=O)(=O)c1cc(C(C)(C)O)cs1` [Example 8, 2-(2,6-diisopropylphenyl)-N-(4-(2-hydroxypropan-2-yl)thiophen-2-ylsulfonyl)acetamide], the IC50 (Table 12, by Example #) is below 1 µM.
Still for that read-out and setting: the result for `CC(C)c1ccc(F)c(C(C)C)c1CC(=O)NS(=O)(=O)c1cccc(C(C)(C)O)c1` [Example 42, 2-(3-fluoro-2,6-diisopropylphenyl)-N-(3-(2-hydroxypropan-2-yl)phenylsulfonyl)acetamide] reads 5 to 15 µM.
For the compound `CC(C)c1cc(Cl)cc(C(F)(F)F)c1CC(=O)NS(=O)(=O)c1ncc(C(C)(C)O)s1` [Example 79, 2-(4-chloro-2-isopropyl-6-(trifluoromethyl)phenyl)-N-(5-(2-hydroxypropan-2-yl)thiazol-2-ylsulfonyl)acetamide], under “Table 12, by Example #”, the IC50 was 15 to 60 µM.
The same measure, in the same setting: in the case of `CC(C)c1cc(F)cc(C(C)C)c1CC(=O)NS(=O)(=O)c1cc(-c2ccncc2)cc(C(C)(C)O)c1` [Example 29, 2-(4-fluoro-2,6-diisopropylphenyl)-N-(3-(2-hydroxypropan-2-yl)-5-(pyridin-4-yl)phenylsulfonyl)acetamide] it was 15 to 60 µM; in that of `CC(C)c1cccc(C(C)C)c1CC(=O)NS(=O)(=O)c1cc(C2(O)CC2)cs1` [Example 14, 2-(2,6-diisopropylphenyl)-N-(4-(1-hydroxycyclopropyl)thiophen-2-ylsulfonyl)acetamide], 1 to 5 µM.
`CC(C)c1cc(F)cc(C(C)C)c1CC(=O)NS(=O)(=O)c1cc2ccccc2o1` [Example 41, N-(benzofuran-2-ylsulfonyl)-2-(4-fluoro-2,6-diisopropylphenyl)acetamide]: under “Table 12, by Example #”, the IC50 was 5 to 15 µM.
With `CC(C)c1cc(F)cc(C(C)C)c1CC(=O)NS(=O)(=O)c1ccc(CN(C)C)cc1` [Compound 214], the concentration for half-maximal inhibition (IC50) (Table 13, by Final Target Number) was below 1 µM.
Take `CC(C)c1cc(C#N)cc(C(C)C)c1CC(=O)NS(=O)(=O)c1cc(C(C)(C)O)n(-c2ccccc2)n1` [Example 65, 2-(4-cyano-2,6-diisopropylphenyl)-N-(5-(2-hydroxypropan-2-yl)-1-phenyl-1H-pyrazol-3-ylsulfonyl)acetamide]: the IC50 (Table 12, by Example #) is 5 to 15 µM.
For `CC(C)c1cc(F)cc(C(C)C)c1CC(=O)NS(=O)(=O)c1cc(C(C)(C)O)ccc1F` [Example 52, 2-(4-fluoro-2,6-diisopropylphenyl)-N-(2-fluoro-5-(2-hydroxypropan-2-yl)phenylsulfonyl)acetamide], the IC50 (Table 12, by Example #) was 1 to 5 µM.
On the same count and under the same terms, the result for `COc1c(Cl)cc(Cl)cc1CC(=O)NS(=O)(=O)c1ncc(C(C)(C)O)s1` [Example 88, 2-(3,5-dichloro-2-methoxyphenyl)-N-(5-(2-hydroxypropan-2-yl)thiazol-2-ylsulfonyl)acetamide] reads 15 to 60 µM.
Take `CC(C)c1cc(F)cc(C(C)C)c1CC(=O)NS(=O)(=O)c1cc(F)cc(C(C)(C)O)c1` [Example 51, 2-(4-fluoro-2,6-diisopropylphenyl)-N-(3-fluoro-5-(2-hydroxypropan-2-yl)phenylsulfonyl)acetamide]: under “Table 12, by Example #”, the half-maximal inhibitory concentration (IC50) was 5 to 15 µM.
On to `CC(C)c1cc(F)cc(C(C)C)c1CC(=O)NS(=O)(=O)c1ccc(C(C)(C)O)c(F)c1` [Example 53, 2-(4-fluoro-2,6-diisopropylphenyl)-N-(3-fluoro-4-(2-hydroxypropan-2-yl)phenylsulfonyl)acetamide], for which, under “Table 12, by Example #”, the IC50 was below 1 µM.
